Data: patent publication US20250295664A1, “THERAPEUTIC COMBINATION OF KRAS G12C INHIBITOR AND TEAD INHIBITOR” (SANOFI, priority 2022, published 2025)
pIC50: −log10 of the molar value.

How the values were obtained:
Assay type in all cases: cell-based
[1] = system: H-2030 KRAS G12C mutant NSCLC cells; assay: Ray design combination experiment, cell proliferation (Cell Titer Glo), 144 h; settings: potentiation of KRAS G12C inhibitor N°1 IC50 by the TEAD inhibitor at 41 nM, Ki = potentiation index IC50ai/IC50a
Procedure: (§1) The NSCLC cell line H-2030 which carries a KRASG12C mutation was used for this study. H-2030 cells were seeded in 384 well plates at 250 cells per well and incubated 24 hours at 37° C. and 5% CO2. The KRAS G12C inhibitor N°1 used at 14 concentrations ranging from 10,000 nM to 0.006 nM was combined with TEAD inhibitors used at 18 concentrations ranging from 10,000 nM to 0.0001 nM, added to H-2030 cells and incubated for 144 hours at 37° C. and 5% CO2. Compound dilution and distribution to cells was performed on the TECAN MCA384 robotic platform. Cell proliferation was measured using Cell Titer Glo from PROMEGA (luminescence).
(§2) Three independent experiments with triplicates/experiment were performed and analyzed using the combination analysis software Combo2Screen. TEAD inhibitors were defined as non-active in this cell line, their effect on the KRAS G12C inhibitor was determined as an effect of potentiation and was quantified using the potentiation index based on the following equation: […]

[2] = system: HOP-62 KRAS G12C mutant NSCLC cells; assay: Ray design combination experiment, cell proliferation (Cell Titer Glo), 96 h; settings: potentiation of KRAS G12C inhibitor N°1 IC50 by the TEAD inhibitor at 370 nM, Ki = potentiation index IC50ai/IC50a
Procedure: as §1, with “line HOP62” for “line H-2030”, “study. HO-P62” for “study. H-2030”, “at 300” for “at 250”, “to HOP-62” for “to H-2030”, “for 96” for “for 144”
as §2, with “triplicates per experiment” for “triplicates/experiment”

[3] = system: KRAS G12C mutant NSCLC cell line HOP-62; assay: IC50 shift experiment, cell proliferation (Cell Titer Glo), 144 h; settings: for pIC50: Homo sapiens, TEAD inhibitor alone, 144 h, read-out: IC50 TEADi; for KRAS G12Ci No1 fold change vs 0.1 μM: IC50 shift of KRAS G12C inhibitor N°1, no TEADi vs TEAD inhibitor 0.1 μM; for KRAS G12Ci No1 fold change vs 1 μM: IC50 shift of KRAS G12C inhibitor N°1, no TEADi vs TEAD inhibitor 1 μM; for KRAS G12Ci No2 fold change vs 0.1 μM: IC50 shift of KRAS G12C inhibitor N°2, no TEADi vs TEAD inhibitor 0.1 μM; for KRAS G12Ci No2 fold change vs 1 μM: IC50 shift of KRAS G12C inhibitor N°2, no TEADi vs TEAD inhibitor 1 μM
Procedure: The KRAS G12C mutant NSCLC cell line HOP-62 was used for this study. Cells were seeded in 96 well plates at 1250 cells per well and incubated 24 hours at 37° C. and 5% CO2. The KRAS G12C inhibitors N°1 and N°2 were used at 10 concentrations and combined with TEAD inhibitors used at 2 concentrations. Compound dilution and distribution to cells was performed on the TECAN MCA384 robotic platform. […] Cell proliferation was measured using Cell Titer Glo from PROMEGA (luminescence). For each KRAS G12C inhibitor, IC50 values in these cell lines were determined in the absence or presence of TEAD inhibitors.

| SMILES | Mean fold potentiation 1/Ki [1] [fold] | Mean fold potentiation 1/Ki [2] [fold] | pIC50 [3] | KRAS G12Ci No1 fold change vs 0.1 μM [3] [fold] | KRAS G12Ci No1 fold change vs 1 μM [3] [fold] | KRAS G12Ci No2 fold change vs 0.1 μM [3] [fold] | KRAS G12Ci No2 fold change vs 1 μM [3] [fold] |
| --- | --- | --- | --- | --- | --- | --- | --- |
| C=CC(=O)Nc1ccc(C)c(Oc2ccc(Cl)cc2)c1 [TEAD inhibitor N°1, N-(3-(4-chlorophenoxy)-4-methylphenyl) acrylamide, reference compound] | 33 | 8 | 5.06 | 8 | 9 | – | – |
| C=CC(=O)Nc1ccc2c(c1)C(Oc1ccc(C(F)(F)F)cc1)CC2 (stereo not shown) [TEAD inhibitor N°8, N-(3-(4-(trifluoromethyl)phenoxy)-2,3-dihydro-1H-inden-5-yl) acrylamide] | – | – | < 5.00 | 6 | 9 | 10 | 12 |
| C=CC(=O)Nc1ccc2c(c1)CCC2Nc1cccc(C(F)(F)F)c1 (stereo not shown) [TEAD inhibitor N°2, N-(1-((3-(trifluoromethyl)phenyl)amino)-2,3-dihydro-1H-inden-5-yl) acrylamide] | 18 | 8 | – | – | – | – | – |
| C=CC(=O)Nc1ccc2c(c1)c(C)cn2Cc1cccc(C(F)(F)F)c1 [TEAD inhibitor N°5, N-(3-methyl-1-(3-(trifluoromethyl)benzyl)-1H-indol-5-yl) acrylamide] | – | – | < 5.00 | 4 | 7 | 8 | 13 |
| C=CC(=O)Nc1ccc2c(c1)c(COC)cn2-c1ccc(C(F)(F)F)cc1 [TEAD inhibitor N°4, N-(3-(methoxymethyl)-1-(4-(trifluoromethyl)phenyl)-1H-indol-5-yl) acrylamide] | – | – | < 5.00 | 5 | 10 | 8 | 12 |
| C=CC(=O)Nc1ccc2c(c1)C(O[C@H]1CC[C@H](C(F)(F)F)CC1)CC2 (relative stereo) [TEAD inhibitor N°6, N-(3-(((trans)-4-(trifluoromethyl)cyclohexyl)oxy)-2,3-dihydro-1H-inden-5-yl) acrylamide] | – | – | < 5.00 | 4 | 6 | 6 | 8 |
| C=CC(=O)Nc1ccc2c(c1)C(Nc1ccc(F)c(F)c1)CC2 (stereo not shown) [TEAD inhibitor N°7, N-(3-((3,4-difluorophenyl)amino)-2,3-dihydro-1H-inden-5-yl) acrylamide] | – | – | < 5.00 | 6 | 13 | 9 | 21 |
| C=CC(=O)Nc1ccc2c(ccn2-c2ccc(C(F)(F)F)cc2)c1 [TEAD inhibitor N°3, N-(1-(4-(trifluoromethyl)phenyl)-1H-indol-5-yl) acrylamide] | – | – | < 5.00 | 6 | 7 | 9 | 8 |
